The values that follow come from PMC5994430, “Mitochondrial Delivery of Phenol Substructure Triggers Mitochondrial Depolarization and Apoptosis of Cancer Cells” (Frontiers in Pharmacology, 2018).

As usually defined, the IC50 is the midpoint of a concentration-inhibition curve.

The subject of assay [1] is electron transport between complexes I and III. Kind of assay: Electron transport chain in mitochondrial extracts of A549 cells. The format is cell-based, Human. The note with it: 0.1 μM, 4 h. Here is the method: The electron transport between complexes I and III was measured in mitochondrial extracts, immediately after extract thawing, as detailed earlier ([Jean et al., 2015]). In particular, 10 μl of not-sonicated mitochondrial samples were re-suspended in 0.59 ml buffer C (5 mM KH2PO4, 5 mM MgCl2, 5% w/v BSA) and transferred into a quartz spectrophotometer cuvette. Then 0.38 ml buffer D (25% w/v saponin, 50 mM KH2PO4, 5 mM MgCl2, 5% w/v BSA, 0.12 mM cytochrome c-oxidized form, 0.2 mM NaN3) was added for 5 min at room temperature. The reaction was started with 0.15 mM NADH and was followed for 5 min, reading the absorbance at 550 nm by a Lambda 3 spectrophotometer (PerkinElmer, Waltham, MA, United States). The results were expressed as nmoles reduced cytochrome c/min/mg mitochondrial proteins. […]
[t] […] (E,F) The electron transport was measured spectrophotometrically in duplicates. ATP levels in mitochondrial extracts was measured by a chemiluminescence-based assay, in duplicates. […] (G,H) ROS amount in mitochondrial extracts and mitochondrial damage were measured fluorimetrically, in duplicates. […] There were no statistically significant differences between untreated (ctrl) and compound 1/compound 2-treated BEAS-2B cells for all the parameters analyzed in this figure.

Assay [2] concerns A549 cells. As to the kind of experiment: Mitochondrial depolarization (JC-1). As to conditions: 0.1 μM, 4 h. The format is cell-based, Human. Here is the method:
(§1) Mitochondrial depolarization was measured by staining cells with the fluorescent probe JC-1 (Biotium Inc., Hayward, CA, United States), as described ([Riganti et al., 2015a]). The red fluorescence, index of polarized mitochondria, was detected at 550 nm (λ excitation) and 600 nm (λ emission); the green fluorescence, index of depolarized and damaged mitochondria, was detected at 485 nm (λ excitation) and 535 nm (λ emission). The fluorescence units were used to calculate the percentage of green-fluorescent versus red-fluorescent mitochondria.
(§2) [t] Continuedof three experiments with similar results. (D) Confocal analysis of mitochondrial staining with MitoTracker® Green FM. Magnification: 60 × objective (0.52 numerical aperture); 10 × ocular lens. Bar: 10 μM. The micrographs are representative of three experiments with similar results. (E,F) The electron transport was measured spectrophotometrically in duplicates. ATP levels in mitochondrial extracts was measured by a chemiluminescence-based assay, in duplicates. Data are means ± SD (n = 3). For both panels: ^∗p < 0.001 vs. A549 ctrl cells; °p < 0.001 for BEAS-2B cells vs. the corresponding condition in A549 cells. (G,H) ROS amount in mitochondrial extracts and mitochondrial damage were measured fluorimetrically, in duplicates. Data are means ± SD (n = 3). For both panels: ^∗p < 0.001 vs. A549 ctrl cells; °p < 0.001 for BEAS-2B cells vs. the corresponding condition in A549 cells. There were no statistically significant differences between untreated (ctrl) and compound 1/compound 2-treated BEAS-2B cells for all the parameters analyzed in this figure.

The test system of assay [3] is BEAS-2B cells. As to the kind of experiment: Mitochondrial depolarization (JC-1). Type of assay: cell-based, Human. The note with it: 0.1 μM, 4 h. Here is the method: as §1, §2
Assay [4] relates to HT29 cells. As to the kind of experiment: Cell viability (neutral red), IC50. The format is cell-based. The note with it: Homo sapiens, HT-29, HT29 colon cancer cells, CompuSyn. The text has this: (§3) Human colon cancer HT29 cells, colon-derived normal fibroblast CCD-18Co cells, lung cancer A549 cells, normal human bronchial epithelial (immortalized with adenovirus 12-SV40 virus hybrid Ad12SV40) BEAS-2B cells, breast cancer MDA-MB-231 cells, normal breast epithelial MCF10A cells, human osteosarcoma U-2OS cells were purchased from ATCC (Manassas, VA, United States). Primary osteoblasts were generated as reported previously ([Buondonno et al., 2016]). HMM and HMC were primary cells stabilized in culture as described ([Aldieri et al., 2004]). The use of primary cells was approved by Ethical Committee of the San Luigi Gonzaga Hospital, Orbassano, (protocol #126/2016). All subjects gave written informed consent in accordance with the Declaration of Helsinki. Cells were maintained in medium supplemented with 10% v/v fetal bovine serum, 1% v/v penicillin-streptomycin, 1% v/v L-glutamine. Morphological analysis was performed with a bright field microscope (Leica Microsystems, Wetzlar, Germany). At least 5 fields/experimental condition were examined.
(§4) The extracellular release of LDH, considered an index of cell damage and necrosis, was measured spectrophotometrically, as reported ([Riganti et al., 2013b]). The extracellular medium was centrifuged at 12,000 × g for 15 min to pellet cellular debris, the cells were washed with fresh medium, detached with 0.01% trypsin/EDTA, re-suspended in 0.2 ml of 82.3 mM triethanolamine phosphate-HCl (pH 7.6), and sonicated on ice with two 10-sec bursts. LDH activity was measured in the extracellular medium and in the cell lysate: 50 μl of extracellular medium or 5 μl of cell lysate were incubated at 37°C with 5 mM NADH. The reaction was started by adding 20 mM pyruvic acid and was monitored for 6 min, measuring absorbance at 340 nm using a Synergy HT Multi-Detection Microplate Reader (Bio-Tek Instruments, Winoosky, MT, United States). The reaction kinetics were linear throughout the time of measurement. Both intracellular and extracellular enzyme activities were expressed as μmol NADH oxidized/min/dish. The results were expressed as percentage of extracellular LDH versus total (intracellular plus extracellular) LDH. Cell viability was measured by the neutral red staining method, as previously reported ([Riganti et al., 2015b]). The absorbance of untreated cells was considered as 100% viability; the results were expressed as percentage of viable cells versus untreated cells. IC50 was calculated with the CompuSyn software^1.

Assay [5] has as its system HMM (human malignant mesothelioma) cells. As to the kind of experiment: Cell viability (neutral red), IC50. Type of assay: cell-based. As to conditions: HMM primary malignant mesothelioma cells, CompuSyn.
Description: as §3, §4

Assay [6] has as its system MDA-MB-231 cells. Kind of assay: Cell viability (neutral red), IC50. As to conditions: Homo sapiens, MDA-MB-231 breast cancer cells, CompuSyn. The format is cell-based.
Description: as §3, §4

The test system of assay [7] is CCD-18Co cells. As to the kind of experiment: Cell viability (neutral red), IC50. As to conditions: Homo sapiens, CCD-18Co colon-derived normal fibroblasts, CompuSyn. Type of assay: cell-based.
Description: as §3, §4

The test system of assay [8] is HMC (human mesothelial cells). As to the kind of experiment: Cell viability (neutral red), IC50. The format is cell-based. As to conditions: HMC primary mesothelial cells, CompuSyn.
Description: as §3, §4

Assay [9] relates to Primary osteoblasts. As to the kind of experiment: Cell viability (neutral red), IC50. The format is cell-based. As to conditions: Homo sapiens, Osteoblast, CompuSyn.
Description: as §3, §4

Assay [10] has as its system MCF10A cells. Kind of assay: Cell viability (neutral red), IC50. The format is cell-based. As to conditions: Homo sapiens, MCF-10A, MCF10A normal breast epithelial cells, CompuSyn.
Description: as §3, §4

Assay [11] relates to mitochondrial ROS. Kind of assay: Mitochondrial ROS (MitoSOX Red) in A549 cells. As to conditions: 0.1 μM, 4 h. The format is cell-based, Human. How it is done:
The amount of ROS in mitochondrial extracts was measured fluorimetrically by incubating cell suspension at 37°C for 10 min with 10 μM of MitoSOX Red probe (Invitrogen Life Technologies), as per manufacturer’s instructions. Results were expressed as nmoles/mg mitochondrial proteins, using a calibration curve previously set with serial dilution of H2O2.
as §2, with “= 3). […] There were” for “= 3). For both panels: ^∗p < 0.001 vs. A549 ctrl cells; °p < 0.001 for BEAS-2B cells vs. the corresponding condition in A549 cells. There were”

Assay [12] deals with PGC-1α. Kind of assay: Immunoblot of nuclear PGC-1α in BEAS-2B cells. The note with it: 0.1 μM, 4 h. Type of assay: cell-based, Human. (In general: Immunoblotting shows a protein as a band on a membrane.)

In the case of `CC(=O)Oc1ccc(C[P+](c2ccccc2)(c2ccccc2)c2ccccc2)cc1.[Br-]` [Compound 1], in assay [1], the “rate of electron transport” value is reported as “significant decrease”. Moreover, the “percentage of depolarized mitochondria” value in assay [2] is “acutely increased”. Moreover, in assay [3], the mitochondrial depolarization result is listed as “negligible modifications”. The half-inhibitory concentration (IC50) stood at 4.45 ± 0.78 µM in [4]; 4.39 ± 0.35 µM in assay [5]; 8.32 ± 1.25 µM in assay [6]; 18.2 ± 1.29 µM in [7]; 7.37 ± 0.89 µM in assay [8]; 6.46 ± 0.83 µM in assay [9]. Besides, the half-maximal inhibitory concentration (IC50) in assay [10] amounted to 7.52 ± 0.43 µM. For the same compound, the “mitochondrial ROS” value in assay [11] is reported as “acutely increased”. Also, in assay [12], the “nuclear level of PGC-1α” value was “unaffected”.
For `O=C(Oc1ccc(C[P+](c2ccccc2)(c2ccccc2)c2ccccc2)cc1C(F)(F)F)c1ccccc1.[Br-]` [Compound 2], in assay [1], the “rate of electron transport” value is on record as “significant decrease”. Besides, the “percentage of depolarized mitochondria” value in [2] was “acutely increased”. In addition, the mitochondrial depolarization result in assay [3] is given as “negligible modifications”. The IC50 in assay [4] was determined as 3.81 ± 0.47 µM; in assay [5] it was 0.82 ± 0.07 µM; in assay [6], 0.34 ± 0.11 µM; in [7], 7.89 ± 0.36 µM; in assay [8], 39.1 ± 4.34 µM; in assay [9], 3.41 ± 0.73 µM. The IC50 in [10] is 6.32 ± 0.41 µM. The “mitochondrial ROS” value in assay [11] was “acutely increased”. In addition, in assay [12], the “nuclear level of PGC-1α” value is “unaffected”.
